Measured values from EP4431090A1, “SOLFONAMIDES ACTING AS MITOCHONDRIAL COMPLEX I MODULATOR COMPOUNDS” (Istesso 1 Limited, priority 2023, dated 2024).
Values joined by “and” are separate entries in the source; they are usually repeats but may differ in a detail not shown here. Identical values can stand only once. Marks after values point to notes of the source that are not given here.

Columns and labels:
[1] = tested on: human primary lung fibroblasts; assay: Cell proliferation (BrdU incorporation, nucleus counts) with compound washout; type: cell-based; conditions: for cell proliferation (BRdU incorporation and nucleus counts): pyruvate-restricted conditions, 24-hours compound treatment; for recovery of cell proliferation after compound washout (BrdU incorporation and nucleus counts): 24-hours incubation in pyruvate-free media, highest tested concentration
Description: Human primary lung fibroblasts were plated at a concentration of 5 × 10^3 cells/well in 96well plates in 100 µL DMEM complete media (5.5 mM glucose, 2 mM L-glutamine, and 1 mM pyruvate) containing 1% penicillin-streptomycin and 10% heat-inactivated foetal bovine serum. Cells were incubated overnight at 37°C / 5% CO2 to allow cell attachment. On the day of the treatment, cell culture medium was removed, and the cells were washed three times with Gibco™ DMEM, no glucose, no L-glutamine, no pyruvate, no phenol red + 1% penicillin-streptomycin and 10% heat inactivated foetal bovine serum (termed `basal' culture medium). Fresh cell culture media (without pyruvate) was added to the wells. Test compounds were prepared as 10x final concentration solutions in pyruvate-free medium. Following 24-hours compound treatment (in 5% CO2,37°C cell incubator), spent medium was removed from all wells and were thoroughly washed thrice with basal cell culture medium. For washout assay condition, 100 µL of pyruvate-free media was added per well. For No Washout, 90 µL of pyruvate-free media and 10 µL of 10x final assay concentration prepared test agents (or assay media) were added per well. Recovery of cell proliferation was measured after 24-hours incubation at 37°C / 5% CO2 with either pyruvate-free media (without re-addition of the compound) or re-addition of compounds in pyruvate-free media.
To assess nucleus counts, formaldehyde was added to a final concentration of 4%. Following a further 20-minute incubation at room temperature, the medium was aspirated, the cells were washed twice with 200 µL TBS-T (1x TBS + 0.1% Tween 20) and the nuclei were stained with 50 µL of PBS containing 10% heat inactivated foetal bovine serum, 0.1% Triton-X-100 and 2 µM Hoechst dye. Following a 30-minute incubation at room temperature, protected from light, the cells were washed twice with TBS-T, and cells were counted in 100 µL PBS solution using an ImageXpress Pico system with stitched plate acquisition (4x magnification), DAPI channel (50 ms exposure, -3 digital confocal setting).
When cells grow and divide (termed proliferation), cells progress through the cell cycle, a tightly regulated process that consists of two main activities: DNA replication and mitosis/cell division. As a method of accurately quantifying cellular proliferation rate, the pyrimidine analogue, BrdU can be utilised to measure DNA replication. BrdU can be incorporated into the newly synthesized DNA in place of thymidine. Following incubation of proliferating cells with BrdU for 20 hours, labelling solution was removed thoroughly, and cells were fixed with 70 µL of fix solution for 30 min at room temperature. […] Eu-fluorescence was measured in a time-resolved manner using the PHERAstar FSX (Ex337/ Em620 nm). […]

[2] = tested on: collagen-induced arthritis; assay: Mouse collagen-induced arthritis; type: in vivo, DBA/1j mice
[3] = tested on: bleomycin-induced lung fibrosis; assay: Mouse bleomycin-induced lung fibrosis; type: in vivo, C57BI/6 mice; conditions: scale 0-5, Dose (mg/kg/day): Nintedanib 30 b.d., HMC-C-01-A 10 q.d., mean ± s.e.m.
Description: Eight- to ten-week-old female C57BI/6 mice were used for all procedures. Animals were housed in groups of 4 and were maintained at 22°C ± 3°C on a 12-hour light/dark cycle with food and water ad libitum. Bleomycin was prepared by dissolving in saline at 1.5 mg/mL. All mice were administered intranasally with 3 mg/kg bleomycin. Seven days after bleomycin administration, vehicle control, nintedanib or MCIM compound administration was initiated. Nintedanib was administered twice daily (b.d.) by oral gavage at a total daily dose of 30 mg/kg/day for 14 days. MCIM compounds were administered once daily (q.d.) by oral gavage at a total daily dose of either 10 or 20 mg/kg/day for 14 days.
On the 14th day, lungs were collected after perfusion. The left lung lobe was assessed for fibrosis by measuring total lung hydroxyproline levels. The right lung lobes were fixed and sectioned for histopathology. […]
The data were analysed by generating an average histopathology score across each treatment group. […]

[4] = tested on: human primary myeloid cells (osteoclasts); assay: Mitochondrial phenotype assessment in osteoclasts (electron microscopy); type: cell-based; conditions: rotenone 100 nM; Figure 3B
Description: Peripheral blood mononuclear cells were isolated from human whole blood by differential centrifugation over Ficoll-Paque PLUS (GE Healthcare Biosciences). CD14+ monocytes were purified from the freshly isolated PBMCs using the CD14+ selection kit (StemCells. UK) by positive magnetic selection according to manufacturer's instructions . Cells were differentiated to osteoclasts by adding 1×10^6 ml-1 cells in complete minimum essential medium-alpha supplemented with 10% heat inactivated fetal bovine serum (FBS, Invitrogen,UK),2mM glutamine (Invitrogen,UK) 20U ml-1 penicillin, 100ug/ml streptomycin (Sigma ALdrich, UK) along with 25ng ml-1 recombinant human M-CSF (Peprotech, UK) and 25 ng ml-1 RANKL for 6 days. On th^e 6th day, the cells were treated with test compound (final concentration 0.03-1 uM, 0,05 % DMSO) or a control, rotenone (100 nM).
Adherent cells were fixed in 2.5% glutaraldehyde in 0.1 M cacodylate buffer, pH 7.4, for 1 h, post fixed with 1% osmium tetroxide (Electron Microscopy Science), dehydrated in a graded series of ethanol, and embedded in Epon (Electron Microscopy Science). The embedded samples were sectioned by an ultramicrotome (Ultracut E, Richert-Jung, Leica Microsystem). Thin sections (90 nm thick) were collected on 300 mesh nickel grids and stained with uranyl acetate (Electron Microscopy Science) and lead citrate. […]

Structure (SMILES): Cc1nc(-c2nc(-c3ccc(OC(F)(F)F)cc3)no2)nn1Cc1cccc(N2CCC(S(C)(=O)=O)CC2)c1 [IACS-010759]
- cell proliferation (BRdU incorporation and nucleus counts) [1]: reduce cell proliferation
- recovery of cell proliferation after compound washout (BrdU incorporation and nucleus counts) [1]: no recovery

Structure (SMILES): C[C@@H]1CCN(C(=O)CC#N)C[C@@H]1N(C)c1ncnc2[nH]ccc12 [Tofacitinib]
- appearance of the osteoid/new bone formed ([2]; 10 mg/kg/day MCIM compound, 3 mg/kg/day etanercept, Figure 23, tofacitinib data not shown): reactive and sporadic deposits
- Bone resorption (sum) Treatment value ([2]; once daily for 14 days, Dose (mg/kg/day) as printed: Etanercept 3, HMC-C-01-A 3, all others 10, sum from all limbs per animal per group): 48**
- Bone formation (sum) Treatment value ([2]; osteoid zones, once daily for 14 days, Dose (mg/kg/day) as printed: Etanercept 3, HMC-C-01-A 3, all others 10, sum from all limbs per animal per group): 0

Structure (SMILES): COC(=O)c1ccc2c(c1)NC(=O)/C2=C(\Nc1ccc(N(C)C(=O)CN2CCN(C)CC2)cc1)c1ccccc1 [Nintedanib]
- AT2 cell number Treatment value ([3]; hyperplasia score, ABD900 20 q.d., two studies): 1.6 ± 0.2 and 1.1 ± 0.1
- AT2 cell size Treatment value ([3]; hypertrophy score): 1.6 ± 0.2

Structure (SMILES): C=C(C)[C@H]1Cc2c(ccc3c2O[C@@H]2COc4cc(OC)c(OC)cc4[C@@H]2C3=O)O1 [rotenone]
- mitochondrial morphology [4]: increased numbers of abnormal mitochondria which were more rounded and had condensed cristae with evidence of fragmentation
- cell proliferation (BRdU incorporation and nucleus counts) [1]: reduce cell proliferation
- recovery of cell proliferation after compound washout (BrdU incorporation and nucleus counts) [1]: no recovery
